Laboratory results reported in PubChem BioAssay (NCI).
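96-well plates; 48 h exposure; 5 concentrations. Endpoints by linear interpolation between flanking doses. Not reached: highest tested concentration assigned. The concentration for 50% growth inhibition is given as GI50. TGI denotes the concentration required for complete inhibition of growth.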

What was measured:
Assay in all cases: growth of human tumour cells (NCI), 48 h
TK-10 renal = tested on: TK-10 renal
HOP-92 NSCLC = tested on: HOP-92 NSCLC
OVCAR-8 ovarian = tested on: OVCAR-8 ovarian
UACC-62 melanoma = tested on: UACC-62 melanoma
RXF 393 renal = tested on: RXF 393 renal
IGROV1 ovarian = tested on: IGROV1 ovarian
OVCAR-5 ovarian = tested on: OVCAR-5 ovarian
SW-620 colon = tested on: SW-620 colon
LOX IMVI melanoma = tested on: LOX IMVI melanoma
HCC-2998 colon = tested on: HCC-2998 colon

| Compound | GI50 (TK-10 renal) [µM] | TGI (TK-10 renal) [µM] | GI50 (HOP-92 NSCLC) [µM] | TGI (HOP-92 NSCLC) [µM] | GI50 (OVCAR-8 ovarian) [µM] | TGI (OVCAR-8 ovarian) [µM] | GI50 (UACC-62 melanoma) [µM] | TGI (UACC-62 melanoma) [µM] | GI50 (RXF 393 renal) [µM] | TGI (RXF 393 renal) [µM] | GI50 (IGROV1 ovarian) [µM] | TGI (IGROV1 ovarian) [µM] | GI50 (OVCAR-5 ovarian) [µM] | TGI (OVCAR-5 ovarian) [µM] | GI50 (SW-620 colon) [µM] | TGI (SW-620 colon) [µM] | GI50 (LOX IMVI melanoma) [µM] | TGI (LOX IMVI melanoma) [µM] | GI50 (HCC-2998 colon) [µM] | TGI (HCC-2998 colon) [µM] |
| --- | --- | --- | --- | --- | --- | --- | --- | --- | --- | --- | --- | --- | --- | --- | --- | --- | --- | --- | --- | --- |
| C[CH2][Sn]([CH2]C)([O]C(=O)c1ccc(OC)c(OC)c1OC)[O]C(=O)c1ccc(OC)c(OC)c1OC | 52.6 | > 68.2 | 21.8 | 49.6 | > 100 | > 100 | 42.6 | > 100 | 14.4 | 30.6 | > 100 | > 100 | > 85.4 | > 100 | 36.5 | 69.1 | 27.2 | > 69.7 | > 100 | > 100 |
| Cc1ccccc1C1CC(c2ccccc2)=NO1 (stereo not given) |  | > 100 |  | > 100 |  | > 100 |  | > 100 |  |  |  | > 100 |  | > 100 |  | > 100 |  |  |  | > 100 |
| CCCCCC[C@H](C)NC(=O)c1ccc(Nc2nc3ccccc3c3occc23)cc1 | 5.26 | 33.5 | 3 | 50.4 | 2.92 | 8 | 16 | 35.5 | 3.88 | 13.7 | 2.46 | 5.77 | 5.35 | > 100 | 3.57 | > 100 | 11.4 | 24.3 | 1.26 | 4.16 |
| CC(C)C1N2CCCCC2[C@@H]2c3[nH]c4ccccc4c3CCN12 (stereo not given in full) |  |  |  | > 100 |  | > 100 |  | > 100 |  | > 100 |  | > 100 |  | > 100 |  | > 100 |  |  |  | > 100 |
| FC(F)(F)c1cc(Nc2ccc3cc(OCCCN4CCOCC4)ccc3n2)ccc1Cl | 2.64 | 5.86 | 1.15 | 2.97 | 2.87 | 10 |  |  | 1.39 | 3.22 | 2.62 | 7.49 | 2.21 | 5.84 | 1.85 | 3.6 | 1.53 | 2.99 | 1.74 | 3.38 |
| O=C1NC(c2cccc(OCc3ccccc3)c2)Nc2ccccc21 (stereo not given) |  | > 75.7 |  | > 100 |  | 27.5 |  | > 27.1 |  |  |  | 93.7 |  | > 22.7 |  | > 100 |  | 17.5 |  | 0.621 |
| Cc1ccc(NC(=O)OCC(COc2ccc(Cl)cc2Cl)OC(=O)Nc2ccc(C)cc2)cc1 (stereo not given) |  |  |  | > 100 |  | 39.3 |  | > 100 |  | > 100 |  | > 100 |  | > 100 |  | > 100 |  |  |  | > 100 |
| CCOP1(=O)C=C(C)C(=C(Cl)Cl)C(C)=C1 (stereo not given) |  | 77.2 |  |  |  | > 100 | 9.31 | 23.6 |  | 30.7 |  | 90.9 |  |  |  | 30.7 | 22.8 | > 100 |  | 31.4 |
| Cn1c2ccccc2c2c(=O)n(CCCC(=O)OC(=NC3CCCCC3)NC3CCCCC3)c3c(-c4ccccc4)nnn3c21 | > 100 | > 100 |  |  | > 100 | > 100 | > 100 | > 100 | 62.8 | > 100 | 15.4 | 94.4 | > 100 | > 100 | > 100 | > 100 | > 100 | > 100 | > 100 | > 100 |
| CCN(CC)CCn1c2ccccc2c(=O)c2c(OC)ccc(OC)c21 |  |  |  | > 100 |  | > 100 |  |  |  | 81.5 |  |  |  | > 100 |  | > 100 |  | > 100 |  |  |
| O=c1c(Cl)cc2nc3ccccc3sc-2c1Cl |  | 33.1 |  |  |  |  |  | 24.4 |  | 32.5 |  | 28.1 |  | 78.9 |  | 34.9 |  | 43 |  | 34.7 |
| C1C[OH+]CC[OH+]CCNCC[OH+]CC[OH+]CCN1.Cl.[Cl-].[Pt+4] | > 100 | > 100 | > 100 | > 100 | > 100 | > 100 | > 100 | > 100 | 1.66 | 4.13 | > 100 | > 100 |  |  | > 100 | > 100 | > 100 | > 100 |  |  |
| CCCCCCCC(=O)[O][Hg][CH2]C1COC([CH2][Hg][O]C(=O)CCCCCCC)CO1 (stereo not given) | 19.6 | 33.7 | 5.85 | 17.1 | 19.8 | 40.1 | 17.5 | 45.3 | 18.5 | 32.5 | 18 | 38.3 | 20.1 | 34.3 | 2.91 | 19.5 |  |  | 18 | 33.1 |
| COc1cccc(Nc2nccc(-c3cnn4ncccc34)n2)c1 |  |  | 0.0392 | 0.157 | 0.0681 | > 25 | 0.0486 | 0.139 | 0.0449 | 0.108 | 0.101 | > 25 | 0.0812 | > 25 | 0.0739 | > 12.3 | 0.0275 | > 25 | 0.0671 | 0.238 |
| COC[C@H](C)N=CN1CCc2ccccc2C1(Cc1ccccc1)Cc1ccccc1 |  | 38.8 |  | 29.8 |  | 28.8 |  | > 100 |  | 32.7 |  | > 100 |  |  |  | 63.1 |  |  |  |  |
| CCN(CC)CCNc1ccc2nc(C)n3c4ccc(O)cc4c(=O)c1c23 |  |  |  |  |  | 3.23 |  |  |  |  |  | 15.5 |  | 8.1 |  | 1.98 |  | 2.04 |  | 1.99 |
| COc1ccc2nc(NC(=O)C(=O)NNC(=O)c3ccncc3)sc2c1 |  | > 100 |  | > 100 |  | > 100 |  | > 100 |  | > 100 |  | > 100 |  |  |  | > 100 |  | > 100 |  | > 100 |
| c1ccc2c(NCCCCCCNc3cccc4ccccc34)cccc2c1 |  | > 100 |  | > 100 |  | > 100 |  | > 100 |  |  |  | > 100 |  | > 100 |  | > 100 |  |  |  | > 100 |
